Experimental data taken from patent US20250339443A1, “METHOD FOR TREATING OR PREVENTING CALCIUM RELEASE-ACTIVATED CALCIUM CHANNEL OR DISCOIDIN DOMAIN RECEPTOR 2 RELATED DISORDERS OR CONDITIONS” (LumiSTAR Biotechnology, Inc., priority 2023, published 2025).

Assays:
Jurkat T cells = experiment: Cytokine secretion in T cells (ELISA); format: cell-based, human; conditions: PHA/PMA induction, culture medium
NRK49F cells = experiment: Collagen alignment assay in FITC-conjugated collagen gel; format: cell-based, rat; conditions: 10 ng/ml TGF-β1, 10 μM, 5 days
Protocol: FIG. 2A, FIG. 2B, FIG. 2C, FIG. 2D, FIG. 2E, FIG. 2F, FIG. 2G-1, and FIG. 2G-2 display how WRG-28 and Av suppress TGF-β1-induced fibroblasts activation and the differentiation of pericytes into myofibroblasts. […] Each bar represents the mean #SEM. […] The protein levels of collagen 1a1 and α-SMA were assessed using Western blot analysis under various conditions. […] Each bar represents mean±SEM. […] The images were acquired using a confocal microscope (Olympus, MPE). FIG. 2G-1 and FIG. 2G-2 display the measurement of angles between collagen fibers and the cell membrane, conducted using Image J. At least five different images from each condition were analyzed. Each bar represents mean±SEM. In all graphs, *, **, and *** represent p-value <0.05, 0.01, and 0.001, respectively. ‘ns’ denotes p-value >0.05, indicating no significant difference.
FITC-conjugated collagen was used to make collagen gel and cells were grown in the gel for 5 days. After that cells were fixed with 4% paraformaldehyde and phalloidin-TRICT was used as counterstaining in the evaluation of the cell body. The angles between fibers and cell membrane were measured by image J.
The alignment of the extracellular matrix (ECM) is a unique characteristic of myofibroblasts, altering the physical properties of the tissue microenvironment and posing a threat to tissue homeostasis during organ fibrosis. […]

[1] = tested on: human pulmonary fibroblast (MRC5); experiment: TGF-β1-induced activation of human pulmonary fibroblasts (Western blot); format: cell-based; conditions: MRC5, 10 μM co-treatment, 24 hours
Protocol: Cells were co-treated with various compounds (10 μM) and TGF-β1 for 24 hours. Following this, cell lysates were harvested, and the protein expression was assessed by Western blot analysis. FIG. 3D depicts the examination of TGF-β1-induced fibronectin deposition and α-SMA expression in HCF treated with 10 μM of DMSO, BTP2, WRG-28, or Av through immunofluorescence staining. The images were captured using a confocal microscope, the Olympus FV-1000. FIG. 3E, FIG. 3F, and FIG. 3G illustrate the assessment of CRAC channel activity in HCF, MRC5, and rat HSC-T6. These cells were pretreated with 10 μM of BTP2, WRG-28, or Av for 45 min. The evaluation included measuring the second peak of each calcium wave and the rate of entry. […]
Cell lysates were harvested in RIPA buffer (150 mM NaCl, 1 mM EGTA, 50 mM Tris pH 7.4, 10% glycerol, 1% Triton X-100, 1% sodium deoxycholate, 0.1% SDS, and protease inhibitor cocktail) and collected from culture dish with cell scrapers. […] The protein expression levels were assessed by specific primary antibodies, including antibodies against phosphotyrosine (clone 4G10; Millipore), DDR2 (R&D), α-SMA (Sigma), Collagen 1a1 (Boster), E-cadherin (BD Biosciences), SGLT2 (Proteintech), NHE1 (Novus) and β-actin (Clone C4, Millipore), followed by incubating with secondary antibodies conjugated with HRP and detected by ECL kit (Thermo Scientific). […]

[2] = tested on: THP-1 derived macrophages; experiment: Cytokine secretion in macrophages (ELISA); format: cell-based, human; conditions: IFN-γ/LPS induction, culture medium

SMILES	secretion of IL-2 in T cells (Jurkat T cells)	TGF-β1-induced collagen alignment (NRK49F cells)	upregulation of α-SMA induced by TGF-β1 [1]	secretion of IL-2 in macrophages [2]	secretion of IL-6 in macrophages [2]	secretion of TNF-β in macrophages [2]
Cc1nnsc1C(=O)Nc1ccc(-n2nc(C(F)(F)F)cc2C(F)(F)F)cc1 [BTP2]	significantly reduced	reduced	suppressed	significantly reduced	significantly reduced	significantly reduced
CCNS(=O)(=O)c1ccc(COc2ccc3nc4ccc(=O)cc-4oc3c2)cc1 [WRG-28]	significantly reduced	reduced	suppressed	significantly reduced	significantly reduced	significantly reduced
